Laboratory results from US10106510B2, “Substituted isoxazoles for treating cancer” (EPIZYME, INC., priority 2014, dated 2018).

Each molecule was assayed against SMYD3 (Homo sapiens (Human), UniProt Q9H7B4) (assay: SMYD3 biochemical assay (SMYD3 enzyme assay on MEKK2 protein substrate, scintillation proximity assay)). Details: 3H-SAM, SPA, IC50 values are an average of n = 1 to n = 50, read-out: SMYD3 Biochem IC50.
From the text: S-adenosylmethionine (SAM), S-adenosylhomocysteine (SAH), Tris, Tween20, dimethylsulfoxide (DMSO), bovine skin gelatin (BSG), and Tris(2-carboxyethyl)phosphine hydrochloride solution (TCEP) were purchased from Sigma-Aldrich at the highest level of purity possible. ^3H-SAM was purchase from American Radiolabeled Chemicals with a specific activity of 80 Ci/mmol. 384-well opaque white OptiPlates and SPA beads (Perkin Elmer, catalog # RPNQ0013) were purchased from PerkinElmer.
N-terminally GST-tagged MEKK2 (MAP3K2) protein corresponding to reference sequence AAF63496.3 was purchased from Life Technologies (catalog # PV4010). […] Protein identity was confirmed by MS/MS analysis after proteolytic digestion. The protein sequence used was:
Full-length human SMYD3 isoform 1 (BAB86333) was inserted into a modified pET21b plasmid containing a His6 tag and TEV and SUMO cleavage sites. Because two common variants of SMYD3 exist in the population, site directed mutagenesis was subsequently performed to change amino acid 13 from an asparagine to a lysine, resulting in plasmid pEPZ533.
E. coli (BL21 codonplus RIL strain, Stratagene) were transformed with plasmid pEPZ553 by mixing competent cells and plasmid DNA and incubating on ice for 30minutes followed by heat shock at 42° C. for 1 minute and cooling on ice for 2 minutes. Transformed cells were grown and selected on LB agar with 100 μg/mL ampicillin and 17 μg/mL chloramphenicol at 37° C. overnight. A single clone was used to inoculate 200 mL of LB medium with 100 μg/mL ampicillin and 17 μg/mL chloramphenicol and incubated at 37° C. on an orbital shaker at 180 rpm. Once in log growth, the culture was diluted 1:100 into 2 L of LB medium and grown until OD600 was about 0.3 after which the culture was incubated at 15° C. and 160 rpm. Once OD600 reached about 0.4, IPTG was added to a final concentration of 0.1 mM and the cells were grown overnight at 15° C. and 160 rpm. Cells were harvested by centrifugation at 8000 rpm, for 4 minutes at 4° C. and stored at −80° C. for purification.
The column was washed with Buffer B (Buffer A plus 20 mM imidazole) and His-tagged SMYD3 was eluted with Buffer C (Buffer A plus 300 mM imidazole). The His tag, TEV and SUMO cleavage sites were removed generating native SMYD3 by addition of ULP1 protein at a ratio of 1:200 (ULP1:SMYD3). Imidazole was removed by dialysis overnight in Buffer A. The dialyzed solution was applied to a second Nickel column and the native SMYD3 protein was collected from the column flow-through. The flow-through was dialyzed in Buffer D (25 mM Tris, 5% glycerol, 5 mM β-mercaptoethanol, 50 mM NaCl, pH7.8) and ULP1 was removed using a Q sepharose fast flow column.
General Procedure for SMYD3 Enzyme Assays on MEKK2 Protein Substrate
The assays were all performed in a buffer consisting of 25 mM Tris-Cl pH 8.0, 1 mM TCEP, 0.005% BSG, and 0.005% Tween 20, prepared on the day of use. Compounds in 100% DMSO (1 ul) were spotted into a 384-well white opaque OptiPlate using a Bravo automated liquid handling platform outfitted with a 384-channel head (Agilent Technologies). DMSO (1 ul) was added to Columns 11, 12, 23, 24, rows A-H for the maximum signal control and 1 ul of SAH, a known product and inhibitor of SMYD3, was added to columns 11, 12, 23, 24, rows I-P for the minimum signal control. A cocktail (40 ul) containing the SMYD3 enzyme was added by Multidrop Combi (Thermo-Fisher). The compounds were allowed to incubate with SMYD3 for 30 min at room temperature, then a cocktail (10 ul) containing SAM and MEKK2 was added to initiate the reaction (final volume=51 ul).

Chain of SMYD3 (Q9H7B4 whole entry): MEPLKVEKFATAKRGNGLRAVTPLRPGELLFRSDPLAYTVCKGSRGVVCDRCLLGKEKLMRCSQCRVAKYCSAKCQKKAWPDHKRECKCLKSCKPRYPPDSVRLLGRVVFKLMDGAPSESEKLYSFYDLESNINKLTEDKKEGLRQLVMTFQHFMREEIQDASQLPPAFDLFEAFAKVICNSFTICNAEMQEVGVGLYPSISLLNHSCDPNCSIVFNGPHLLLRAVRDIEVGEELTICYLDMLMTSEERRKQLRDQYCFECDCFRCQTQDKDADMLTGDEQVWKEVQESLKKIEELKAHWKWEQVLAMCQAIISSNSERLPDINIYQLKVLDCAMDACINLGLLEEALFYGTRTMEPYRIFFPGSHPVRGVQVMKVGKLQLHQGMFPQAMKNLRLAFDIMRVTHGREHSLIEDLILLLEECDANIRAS

**Q.** Which IC50 does the source give for CCc1cc(C(=O)N[C@H]2CC[C@H](NC(=O)C[C@H](C)N)C[C@H]2CC)no1 (mixture of isomers) [compound 7, Mixture of N-((1S,2R,4S)-4-((S)-3-aminobutanamido)-2-ethylcyclohexyl)-5-ethylisoxazole-3-carboxamide and N-((1R,2S,4R)-4-((S)-3-aminobutanamido)-2-ethylcyclohexyl)-5-ethylisoxazole-3-carboxamide; (1S,2R,4S) isomer depicted] here?
**A.** 170 nM

**Q.** How did the IC50 turn out when NC1CCC1C(=O)N[C@H]1CC[C@H](NC(=O)c2cc(C3CC3)on2)CC1 (stereo partly shown) [Cpd. No. 3, N-((1r,4r)-4-(2-amino-cyclobutane-1-carboxamido)cyclo-hexyl)-5-cyclopropylisoxazole-3-carboxamide] was run?
**A.** 545 nM

**Q.** With NCCCS(=O)(=O)N[C@H]1CC[C@H](NC(=O)c2cc(C3CC3)on2)CC1 [Cpd. No. 34, N-((1r,4r)-4-((3-amino-propyl)sulfonamido)cyclohexyl)-5-cyclopropylisoxazole-3-carboxamide] as the molecule, how does the IC50 read?
**A.** 1340 nM

**Q.** For CC(N)CC(=O)N[C@H]1CC[C@H](NC(=O)c2cc(C3CC3)on2)CC1 (stereo partly shown) [compound 1, N-((1r,4r)-4-(3-aminobutanamido)cyclohexyl)-5-cyclopropylisoxazole-3-carboxamide], which IC50 is on record?
**A.** 466 nM

**Q.** How did the IC50 turn out when CCc1cc(C(=O)N[C@H]2CC[C@H](N)C[C@H]2CC)no1 [compound 2, N-((1S,2R,4S)-4-amino-2-ethylcyclohexyl)-5-ethylisoxazole-3-carboxamide] was run?
**A.** 2440 nM

**Q.** For NCCC(=O)N[C@H]1CC[C@H](NC(=O)c2cc(C3CC3)on2)CC1 [compound 4, N-((1r,4r)-4-(3-aminopropanamido)cyclohexyl)-5-cyclopropylisoxazole-3-carboxamide], which IC50 is on record?
**A.** 475 nM

**Q.** How did the IC50 turn out when CC(CN)C(=O)N[C@H]1CC[C@H](NC(=O)c2cc(C3CC3)on2)CC1 (stereo partly shown) [compound 8, N-((1r,4r)-4-(3-amino-2-methylpropanamido)cyclohexyl)-5-cyclopropylisoxazole-3-carboxamide] was run?
**A.** 654 nM

**Q.** With NCCC(=O)N(CCO)[C@H]1CC[C@H](NC(=O)c2cc(C3CC3)on2)CC1 [compound 9, N-((1r,4r)-4-(3-amino-N-(2-hydroxyethyl)propanamido)cyclohexyl)-5-cyclo-propylisoxazole-3-carboxamide] as the molecule, how does the IC50 read?
**A.** 2280 nM

**Q.** Which IC50 does the source give for CN1CCN(CCC(=O)N[C@H]2CC[C@H](NC(=O)c3cc(C4CC4)on3)CC2)CC1 [compound 10, 5-cyclopropyl-N-((1r,4r)-4-(3-(4-methylpiperazin-1-yl)propanamido)cyclohexyl)isoxazole-3-carboxamide] here?
**A.** 7720 nM

**Q.** How did the IC50 turn out when CNCCC(=O)N[C@H]1CC[C@H](NC(=O)c2cc(C3CC3)on2)CC1 [compound 12, 5-cyclopropyl-N-((1r,4r)-4-(3-(methylamino)propanamido)cyclohexyl) isoxazole-3-carboxamide] was run?
**A.** 867 nM

**Q.** For N[C@H]1CC[C@@H](C(=O)N[C@H]2CC[C@H](NC(=O)c3cc(C4CC4)on3)CC2)CC1 [compound 13, N-((1R,4r)-4-((1s,4S)-4-aminocyclohexane-1-carboxamido)cyclohexyl)-5-cyclopropylisoxazole-3-carboxamide], which IC50 is on record?
**A.** 352 nM

**Q.** Which IC50 does the source give for N[C@H]1C[C@@H](C(=O)N[C@H]2CC[C@H](NC(=O)c3cc(C4CC4)on3)CC2)C1 [compound 14, N-((1R,4r)-4-((1s,3S)-3-aminocyclobutane-1-carboxamido)cyclohexyl)-5-cyclopropylisoxazole-3-carboxamide] here?
**A.** 1180 nM

**Q.** O=C(CCN1CCOCC1)N[C@H]1CC[C@H](NC(=O)c2cc(C3CC3)on2)CC1 [compound 15, 5-cyclopropyl-N-((1r,4r)-4-(3-morpholino-propanamido)cyclohexyl) isoxazole-3-carboxamide] was tested. Which IC50 did it give?
**A.** 20400 nM

**Q.** How did the IC50 turn out when N[C@H]1CC[C@H](C(=O)N[C@H]2CC[C@H](NC(=O)c3cc(C4CC4)on3)CC2)CC1 [compound 16, N-((1R,4r)-4-((1r,4R)-4-aminocyclohexane-1-carboxamido)cyclohexyl)-5-cyclopropylisoxazole-3-carboxamide] was run?
**A.** 606 nM

**Q.** Which IC50 does the source give for O=C(CCN1CCNCC1)N[C@H]1CC[C@H](NC(=O)c2cc(C3CC3)on2)CC1 [compound 17, 5-cyclopropyl-N-((1r,4r)-4-(3-(piperazin-1-yl)propanamido)cyclohexyl)isoxazole-3-carboxamide] here?
**A.** 1150 nM

**Q.** With O=C(CCNCc1ccccc1)N[C@H]1CC[C@H](NC(=O)c2cc(C3CC3)on2)CC1 [compound 18, N-((1r,4r)-4-(3-(benzylamino)propanamido)cyclohexyl)-5-cyclopropylisoxazole-3-carboxamide] as the molecule, how does the IC50 read?
**A.** 671 nM

**Q.** For CC(C)CNCCC(=O)N[C@H]1CC[C@H](NC(=O)c2cc(C3CC3)on2)CC1 [compound 19, 5-cyclopropyl-N-((1r,4r)-4-(3-(isobutylamino)propanamido)cyclohexyl)isoxazole-3-carboxamide], which IC50 is on record?
**A.** 919 nM

**Q.** Which IC50 does the source give for N[C@@H]1CC[C@H](C(=O)N[C@H]2CC[C@H](NC(=O)c3cc(C4CC4)on3)CC2)C1 [compound 21, N-((1S,4r)-4-((1S,3R)-3-aminocyclopentane-1-carboxamido)cyclohexyl)-5-cyclopropylisoxazole-3-carboxamide] here?
**A.** 511 nM

**Q.** Which IC50 does the source give for N[C@H]1C[C@H](C(=O)N[C@H]2CC[C@H](NC(=O)c3cc(C4CC4)on3)CC2)C1 [compound 22, N-((1R,4r)-4-((1r,3R)-3-aminocyclobutane-1-carboxamido)cyclohexyl)-5-cyclopropylisoxazole-3-carboxamide] here?
**A.** 269 nM

**Q.** For NCCCN[C@H]1CC[C@H](NC(=O)c2cc(C3CC3)on2)CC1 [compound 23, N-((1r,4r)-4-((3-aminopropyl)amino)cyclohexyl)-5-cyclopropylisoxazole-3-carboxamide], which IC50 is on record?
**A.** 342 nM

**Q.** CC(C)CCN[C@H]1CC[C@H](NC(=O)c2cc(C3CC3)on2)CC1 [compound 25, 5-cyclopropyl-N-((1r,4r)-4-(isopentylamino)cyclohexyl)isoxazole-3-carboxamide] was tested. Which IC50 did it give?
**A.** 8230 nM

**Q.** With NCC(O)C(=O)N[C@H]1CC[C@H](NC(=O)c2cc(C3CC3)on2)CC1 (stereo partly shown) [compound 27, N-((1r,4r)-4-(3-amino-2-hydroxypropanamido)cyclohexyl)-5-cyclopropylisoxazole-3-carboxamide] as the molecule, how does the IC50 read?
**A.** 567 nM

**Q.** NCCN[C@H]1CC[C@H](NC(=O)c2cc(C3CC3)on2)CC1 [compound 28, N-((1r,4r)-4-((2-aminoethyl)amino)cyclohexyl)-5-cyclopropylisoxazole-3-carboxamide] was tested. Which IC50 did it give?
**A.** 853 nM

**Q.** With NCCS(=O)(=O)N[C@H]1CC[C@H](NC(=O)c2cc(C3CC3)on2)CC1 [compound 29, N-((1r,4r)-4-((2-aminoethyl)sulfonamido)cyclohexyl)-5-cyclopropylisoxazole-3-carboxamide] as the molecule, how does the IC50 read?
**A.** 2900 nM

**Q.** For NCCC(=O)N(CCN)[C@H]1CC[C@H](NC(=O)c2cc(C3CC3)on2)CC1 [compound 35, N-((1r,4r)-4-(3-amino-N-(2-aminoethyl)propanamido)cyclohexyl)-5-cyclopropylisoxazole-3-carboxamide], which IC50 is on record?
**A.** 883 nM

**Q.** For NCCCN(C(=O)CCO)[C@H]1CC[C@H](NC(=O)c2cc(C3CC3)on2)CC1 [compound 36, N-((1r,4r)-4-(N-(3-aminopropyl)-3-hydroxypropanamido)cyclohexyl)-5-cyclopropylisoxazole-3-carboxamide], which IC50 is on record?
**A.** 7030 nM

**Q.** With CCS(=O)(=O)N[C@H]1CC[C@H](NC(=O)c2cc(C3CC3)on2)CC1 [compound 37, 5-cyclopropyl-N-((1r,4r)-4-(ethylsulfonamido)cyclohexyl)isoxazole-3-carboxamide] as the molecule, how does the IC50 read?
**A.** 6360 nM

**Q.** With NCCC(=O)N(CCCO)[C@H]1CC[C@H](NC(=O)c2cc(C3CC3)on2)CC1 [compound 38, N-((1r,4r)-4-(3-amino-N-(3-hydroxypropyl)propanamido)cyclohexyl)-5-cyclopropylisoxazole-3-carboxamide] as the molecule, how does the IC50 read?
**A.** 1200 nM
